Measured values published in ChEMBL document CHEMBL3885881, “DrugMatrix”.

Species on record: Rattus norvegicus
Test: DrugMatrix - Regimen: Daily Repeat
Type: toxicity, organism-based, Sprague-Dawley
Design: regimen Daily Repeat, gender Male, age 6-8 weeks
Conditions: in vivo, sc, route mini-PUMP - SUBCUTANEOUS, vehicle 100 % SALINE; for TOTAL PROTEIN / ALANINE AMINOTRANSFERASE / ALBUMIN / ALKALINE PHOSPHATASE / ASPARTATE AMINOTRANSFERASE / BLOOD UREA NITROGEN / CARBON DIOXIDE / CHLORIDE / CHOLESTEROL / LACTATE DEHYDROGENASE / LIPASE / PHOSPHORUS / POTASSIUM / SODIUM / CREATININE / TOTAL BILIRUBIN: tissue Plasma; for ABSOLUTE BASOPHIL / ABSOLUTE EOSINOPHIL / ABSOLUTE LYMPHOCYTE / ABSOLUTE MONOCYTE / ABSOLUTE SEGMENTED NEUTROPHIL / BASOPHIL / EOSINOPHIL / ERYTHROCYTE COUNT / HEMOGLOBIN / LEUKOCYTE COUNT / LYMPHOCYTE / MEAN CORPUSCULAR HEMOGLOBIN / MEAN CORPUSCULAR HEMOGLOBIN CONCENTRATION / MEAN CORPUSCULAR VOLUME / NUCLEATED RED BLOOD CELLS / PLATELET COUNT: tissue Blood
[1] = 0 mg/kg, 120 h, dose level Control, time 5 day
[2] = 0 mg/kg, […], dose level Control, time 14 day
[3] = […], dose 0.77 mg/Kg, dose level High, time 14 day

SMILES: CNC[C@H](O)c1ccc(O)c(O)c1 [EPINEPHRINE]
- TOTAL PROTEIN (0 mg/kg, 72 h, dose level Control, time 3 day): 6.05 G/DL
- ABSOLUTE BASOPHIL [1]: 0 CELLS/uL
- ABSOLUTE EOSINOPHIL [1]: 0 CELLS/uL
- ABSOLUTE LYMPHOCYTE [1]: 14257.33 CELLS/uL
- ABSOLUTE MONOCYTE [1]: 326 CELLS/uL
- ABSOLUTE SEGMENTED NEUTROPHIL [1]: 3216.67 CELLS/uL
- BASOPHIL [1]: 0%
- EOSINOPHIL [1]: 0%
- ERYTHROCYTE COUNT [1]: 6.11 x10E6/uL
- HEMOGLOBIN [1]: 13.18 G/DL
- LEUKOCYTE COUNT [1]: 17.8 x10E3/uL
- LYMPHOCYTE [1]: 80.5%
- MEAN CORPUSCULAR HEMOGLOBIN [1]: 21.62 pg
- MEAN CORPUSCULAR HEMOGLOBIN CONCENTRATION [1]: 36.42 G/DL
- MEAN CORPUSCULAR VOLUME [1]: 59.37 fL
- NUCLEATED RED BLOOD CELLS [1]: 0 /100WBC
- PLATELET COUNT [1]: 1311 x10E3/uL
- ALANINE AMINOTRANSFERASE [1]: 47 u/L
- ALBUMIN [1]: 3.83 G/DL
- ALKALINE PHOSPHATASE [1]: 260.33 u/L
- ASPARTATE AMINOTRANSFERASE [1]: 76.17 u/L
- BLOOD UREA NITROGEN [1]: 14.67 mg/dL
- CARBON DIOXIDE [1]: 31.33 mmol/L
- CHLORIDE [1]: 101.17 MEQ/L
- CHOLESTEROL [1]: 75 mg/dL
- LACTATE DEHYDROGENASE [1]: 147.33 u/L
- LIPASE [1]: 9.33 u/L
- PHOSPHORUS [1]: 10.97 mg/dL
- POTASSIUM [1]: 6 MEQ/L
- SODIUM [1]: 145.52 MEQ/L
- TOTAL PROTEIN [1]: 5.83 G/DL
- ABSOLUTE BASOPHIL [2]: 0 CELLS/uL
- ABSOLUTE EOSINOPHIL [2]: 64.5 CELLS/uL
- ABSOLUTE LYMPHOCYTE [2]: 12507.83 CELLS/uL
- ABSOLUTE MONOCYTE [2]: 380.33 CELLS/uL
- ABSOLUTE SEGMENTED NEUTROPHIL [2]: 2414 CELLS/uL
- BASOPHIL [2]: 0%
- EOSINOPHIL [2]: 0.5%
- ERYTHROCYTE COUNT [2]: 6.1 x10E6/uL
- HEMOGLOBIN [2]: 12.88 G/DL
- LEUKOCYTE COUNT [2]: 15.37 x10E3/uL
- LYMPHOCYTE [2]: 80.83%
- MEAN CORPUSCULAR HEMOGLOBIN [2]: 21.18 pg
- MEAN CORPUSCULAR HEMOGLOBIN CONCENTRATION [2]: 36.43 G/DL
- MEAN CORPUSCULAR VOLUME [2]: 58.17 fL
- NUCLEATED RED BLOOD CELLS [2]: 0.17 /100WBC
- PLATELET COUNT [2]: 1016 x10E3/uL
- ALANINE AMINOTRANSFERASE [2]: 53.33 u/L
- ALBUMIN [2]: 3.93 G/DL
- ALKALINE PHOSPHATASE [2]: 319.83 u/L
- ASPARTATE AMINOTRANSFERASE [2]: 84 u/L
- BLOOD UREA NITROGEN [2]: 15.5 mg/dL
- CARBON DIOXIDE [2]: 34 mmol/L
- CHLORIDE [2]: 101.83 MEQ/L
- CHOLESTEROL [2]: 57 mg/dL
- CREATININE [2]: 0.21 mg/dL
- LACTATE DEHYDROGENASE [2]: 104.67 u/L
- LIPASE [2]: 9.17 u/L
- PHOSPHORUS [2]: 11.12 mg/dL
- POTASSIUM [2]: 5.81 MEQ/L
- SODIUM [2]: 144.85 MEQ/L
- TOTAL BILIRUBIN [2]: 0.18 mg/dL
- TOTAL PROTEIN [2]: 5.92 G/DL
- ABSOLUTE BASOPHIL [3]: 0 CELLS/uL
- ABSOLUTE EOSINOPHIL [3]: 121.6 CELLS/uL
- ABSOLUTE LYMPHOCYTE [3]: 13213.6 CELLS/uL
- ABSOLUTE MONOCYTE [3]: 369.4 CELLS/uL
- ABSOLUTE SEGMENTED NEUTROPHIL [3]: 2115.4 CELLS/uL
- BASOPHIL [3]: 0%
- EOSINOPHIL [3]: 0.8%
- ERYTHROCYTE COUNT [3]: 6.78 x10E6/uL
- HEMOGLOBIN [3]: 14.32 G/DL
- LEUKOCYTE COUNT [3]: 15.82 x10E3/uL
- LYMPHOCYTE [3]: 84.2%
- MEAN CORPUSCULAR HEMOGLOBIN [3]: 21.14 pg
- MEAN CORPUSCULAR HEMOGLOBIN CONCENTRATION [3]: 36.3 G/DL
- MEAN CORPUSCULAR VOLUME [3]: 58.22 fL
- NUCLEATED RED BLOOD CELLS [3]: 0 /100WBC
- PLATELET COUNT [3]: 976 x10E3/uL
- ALANINE AMINOTRANSFERASE [3]: 53.2 u/L
- ALBUMIN [3]: 4.38 G/DL
- ALKALINE PHOSPHATASE [3]: 383.4 u/L
- ASPARTATE AMINOTRANSFERASE [3]: 82 u/L
- BLOOD UREA NITROGEN [3]: 15.6 mg/dL
- CARBON DIOXIDE [3]: 34.2 mmol/L
- CHLORIDE [3]: 99.8 MEQ/L
- CHOLESTEROL [3]: 80.2 mg/dL
- CREATININE [3]: 0.21 mg/dL
- LACTATE DEHYDROGENASE [3]: 111.2 u/L
- LIPASE [3]: 9 u/L
- PHOSPHORUS [3]: 11.84 mg/dL
- POTASSIUM [3]: 6.19 MEQ/L
- SODIUM [3]: 147.16 MEQ/L
- TOTAL BILIRUBIN [3]: 0.14 mg/dL
- TOTAL PROTEIN [3]: 6.7 G/DL
